Experimental data as given in US6949250B2, “Selective algaecides for control of cyanochloronta” (The United States of America as represented by the …, priority 2002, dated 2005).

Columns and labels:
Format in all cases: in vivo
2-methylisoborneol = experiment: DNA1-19-1 second and third pond efficacy studies: MIB levels; conditions: second and third efficacy study; 1, 0.3, and 0.1 μM
Experimental: (§1) The method described by Schrader et al. (2000) was used to determine the potential for using the anthraquinone derivatives as selective algicides in catfish aquaculture ponds. All catfish ponds used in efficacy tests were maintained using commercial pond management practices and were located at the Thad Cochran Pond Facility, Mississippi State University, Stoneville, Miss. Anthraquinone analogs were dissolved in deionized water before application to water within the limnocorrals.
(§2) Limnocorrals in which test compound was applied to the enclosed water were randomly selected, and control (no test compound applied) limnocorrals were included in each efficacy study. For each sampling, two water samples (250 mL) were obtained from within each limnocorral (approximately 6-8 cm below the water surface and from opposite sides of each limnocorral) and mixed together in a 500 mL sample bottle to provide a representative sample of the water contained within the limnocorral.
In the second study with DNA1-19-1, twelve limnocorrals that were the same size as those used in the first study were placed in another 4-ha earthen catfish pond. […] The sampling regime and procedures used in the first study were followed in a similar manner, except that water samples were obtained before DNA1-19-1 application, 16 hours after application, and at days 2, 4, and 7. […]

Oscillatoria perornata [1] = experiment: DNA2-59-1 third pond efficacy study: O. perornata abundance; conditions: 0.3 μM, within 24 hours after application
Experimental: as §1, §2
(§3) For the third efficacy test with DNA2-59-1, twelve limnocorrals (2.44 m in diameter and 1.53 m high) were placed in a 4-ha earthen pond containing a bloom of O. perornata. […]

Cylindrospermopsis spp. = experiment: DNA2-59-1 third pond efficacy study: Cylindrospermopsis spp. abundance; conditions: 0.3 μM, one day after application
Experimental: as §1, §2, §3

Oscillatoria agardhii = experiment: DNA2-59-1 second pond efficacy study: Oscillatoria agardhii abundance; conditions: 0.3 μM
Experimental: as §1, §2
In the second efficacy test with DNA2-59-1, six limnocorrals (1.53 m in diameter and 1.53 m high) were placed in a 0.1-ha earthen pond containing a heavy bloom of O. perornata. The same delay in mixing the water within the limnocorrals used in the first efficacy study was utilized. Water within three randomly selected limnocorrals received an application rate of 0.3 μM DNA2-59-1, and the other three limnocorrals were controls. […]

Anabaena circinalis = experiment: DNA2-59-1 first pond efficacy study: Anabaena circinalis abundance
Experimental: as §1
(§4) Limnocorrals in which test compound was applied to the enclosed water were randomly selected, and control (no test compound applied) limnocorrals were included in each efficacy study. […]
(§5) In the first study, application rates of 0.1 μM (37.7 μg/L), 0.3 μM ([…]), and 1.0 μM (377 μg/L) of DNA2-59-1 were tested using limnocorrals (three replicates per concentration) that were of the same type used for testing DNA1-19-1. […] Water samples were also analyzed to determine the persistence of DNA2-59-1 in the pond water, and this analysis was performed by using high-pressure liquid chromatography (HPLC) (method and results are described later).

Oscillatoria perornata [2] = experiment: DNA2-59-1 first pond efficacy study: O. perornata abundance; conditions: first study, 0.1, 0.3 and 1 μM
Experimental: as §1, §4, §5

| SMILES | 2-methylisoborneol levels compared to controls (result in words) (2-methylisoborneol) | Numbers of O. perornata (result in words) (Oscillatoria perornata [1]) | Numbers of Cylindrospermopsis spp. (result in words) (Cylindrospermopsis spp.) | Numbers of Oscillatoria agardhii (result in words) (Oscillatoria agardhii) | Numbers of Anabaena circinalis compared to controls (result in words) (Anabaena circinalis; 1 μM) | filaments of A. circinalis present (result in words) (Anabaena circinalis; 16 hours after application of 1 μM) | numbers of O. perornata filaments compared to controls (result in words) (Oscillatoria perornata [2]) |
| --- | --- | --- | --- | --- | --- | --- | --- |
| CCN(CC)CCCC(C)NCc1ccc2c(c1)C(=O)c1ccccc1C2=O.O=P(O)(O)O.O=P(O)(O)O (stereo not shown) [DNA1-19-1, 2-[methylamino-N-(1′-methyl-4′-N,N-diethylaminobutyl)]-9,10-anthraquinone diphosphate] | lack of reduction |  |  |  |  |  |  |
| CC(C)NCc1ccc2c(c1)C(=O)c1ccccc1C2=O [DNA2-59-1, 2-[methylamino-N-(1′-methylethyl)]-9,10-anthraquinone monophosphate] |  | significantly reduced | significantly reduced | not affected | significantly reduced | no filaments of A. circinalis were observed to be present | significantly reduced |
